Laboratory results taken from PMC6044835, “Expression, Purification, and Biochemical Characterization of the Flavocytochrome P450 CYP505A30 from Myceliophthora thermophila” (ACS Omega, 2017).
Read-outs that look alike come from different tables or passages of the source. One block for each compound: values may come before it.

How the values were obtained:
rat CPR = details: cited from earlier work
[1] = molecular target: Desulfovibrio vulgaris flavodoxin; details: D. vulgaris flavodoxin; cited from earlier work
[2] = molecular target: FMN (flavodoxin-like) domain of human reductase; parameters: method as in PMID 6778861, PMID 11695890, PMID 12600198; details: cited from earlier work
[3] = tested on: FMN (flavodoxin-like) domain of P450 BM3 reductase; parameters: method as in PMID 6778861, PMID 11695890, PMID 12600198; details: cited from earlier work
CYP505A30 [4] = molecular target: T1, CYP505A30 (Thermothelomyces thermophilus, UniProt G2QDZ3); assay: UV-visible spectral binding titration of fatty acid substrates (type I heme Soret shift) to ca. 4-6 uM enzyme in 50 mM potassium phosphate pH 7.0 at 25 °C, hyperbolic or Morrison fit.; parameters: gene MYCTH_101224; intact CYP505A30, amino acids 1-1080, N-terminal hexahistidine tag (pET15b), expressed in E. coli
T1 sequence (G2QDZ3 entry or part of it): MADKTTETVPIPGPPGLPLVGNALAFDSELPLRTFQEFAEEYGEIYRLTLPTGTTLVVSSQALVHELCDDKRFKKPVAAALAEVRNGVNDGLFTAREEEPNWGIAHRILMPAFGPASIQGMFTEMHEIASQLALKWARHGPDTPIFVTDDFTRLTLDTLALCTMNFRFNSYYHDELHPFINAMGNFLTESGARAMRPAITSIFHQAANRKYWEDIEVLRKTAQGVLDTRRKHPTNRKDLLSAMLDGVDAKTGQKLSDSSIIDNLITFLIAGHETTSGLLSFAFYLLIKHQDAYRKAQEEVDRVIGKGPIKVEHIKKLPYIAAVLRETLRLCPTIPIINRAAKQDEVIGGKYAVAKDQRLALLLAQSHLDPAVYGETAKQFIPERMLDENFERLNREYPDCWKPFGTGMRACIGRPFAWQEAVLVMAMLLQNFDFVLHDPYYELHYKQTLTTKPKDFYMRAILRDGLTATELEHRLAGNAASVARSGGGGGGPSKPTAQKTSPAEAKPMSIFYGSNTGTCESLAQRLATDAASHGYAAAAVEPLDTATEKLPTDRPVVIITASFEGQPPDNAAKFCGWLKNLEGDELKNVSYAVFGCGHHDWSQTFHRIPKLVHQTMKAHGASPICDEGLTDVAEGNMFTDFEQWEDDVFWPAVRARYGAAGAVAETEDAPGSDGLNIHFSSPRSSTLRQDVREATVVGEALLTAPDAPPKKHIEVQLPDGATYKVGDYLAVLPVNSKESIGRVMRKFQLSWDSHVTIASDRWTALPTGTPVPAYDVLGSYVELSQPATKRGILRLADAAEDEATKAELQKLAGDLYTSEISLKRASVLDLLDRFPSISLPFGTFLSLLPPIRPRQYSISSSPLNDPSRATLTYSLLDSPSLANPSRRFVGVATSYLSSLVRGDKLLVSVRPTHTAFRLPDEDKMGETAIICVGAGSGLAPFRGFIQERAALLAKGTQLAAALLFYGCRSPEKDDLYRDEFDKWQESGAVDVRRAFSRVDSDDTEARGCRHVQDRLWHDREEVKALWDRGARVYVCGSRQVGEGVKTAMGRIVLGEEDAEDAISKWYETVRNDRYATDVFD

heme domain = molecular target: T2, heme domain (Thermothelomyces thermophilus, UniProt G2QDZ3); assay: as above
T2 construct: gene MYCTH_101224; heme domain, amino acids 1-464 (stop codon at Gly465, named D464X), N-terminal hexahistidine tag (pET15b), expressed in E. coli
T2 sequence (G2QDZ3 1-464): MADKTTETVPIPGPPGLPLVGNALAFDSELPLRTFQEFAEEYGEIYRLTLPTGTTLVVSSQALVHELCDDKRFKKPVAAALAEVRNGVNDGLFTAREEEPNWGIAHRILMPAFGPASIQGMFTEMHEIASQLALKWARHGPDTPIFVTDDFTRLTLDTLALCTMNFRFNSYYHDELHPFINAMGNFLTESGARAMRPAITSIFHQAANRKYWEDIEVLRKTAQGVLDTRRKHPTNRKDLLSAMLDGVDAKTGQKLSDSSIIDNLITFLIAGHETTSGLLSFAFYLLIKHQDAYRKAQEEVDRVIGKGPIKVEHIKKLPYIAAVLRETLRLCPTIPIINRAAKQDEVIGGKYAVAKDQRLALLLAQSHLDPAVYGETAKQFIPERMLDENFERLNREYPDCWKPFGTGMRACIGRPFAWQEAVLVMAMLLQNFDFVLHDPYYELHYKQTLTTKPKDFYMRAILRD

CYP505A30 heme domain [5] = molecular target: T3, CYP505A30 heme domain (Thermothelomyces thermophilus, UniProt G2QDZ3); assay: UV–visible spectral binding titration with CYP505A30 heme domain
CYP505A30 heme domain [6] = molecular target: T3, CYP505A30 heme domain; details: arachidonic acid-bound heme domain, vs NHE
P450 BM3 [7] = details: cited from earlier work
CYP505A30 [8] = molecular target: T1, CYP505A30; assay: UV–visible spectral binding titration with intact CYP505A30; details: for Kd: substrate binding to intact CYP505A30, heme absorbance change, 25 °C
CYP505A30 [9] = molecular target: T1, CYP505A30
CYP505A30 [10] = molecular target: T1, CYP505A30; remark: listed apart in the source
CYP505A1 [11] = assay: CYP505A1 dodecanoic acid oxidation product distribution (literature); format: biochemical, Fusarium oxysporum; details: CYP505A1, from literature values
CYP505A1 [12] = tested on: CYP505A1; parameters: method as in PMID 11985584; details: cited from earlier work
CYP505A30 heme domain [13] = molecular target: T3, CYP505A30 heme domain
P450 BM3 [14] = tested on: P450 BM3; parameters: method as in PMID 1727637; details: cited from earlier work

SMILES: Cc1cc2nc3c(=O)[nH]c(=O)nc-3n(C[C@H](O)[C@H](O)[C@H](O)COP(=O)(O)OP(=O)(O)OC[C@H]3O[C@@H](n4cnc5c(N)ncnc54)[C@H](O)[C@@H]3O)c2cc1C [FAD, flavin adenine dinucleotide]
binding (rat CPR): subnanomolar

SMILES: Cc1cc2nc3c(=O)[nH]c(=O)nc-3n(C[C@H](O)[C@H](O)[C@H](O)COP(=O)(O)O)c2cc1C [FMN, flavin mononucleotide]
Kd [1]: 0.0024 µM
Kd [2]: 0.042 ± 0.007 µM
Kd [3]: 0.086 ± 0.014 µM

SMILES: CCCCCCCCCCCCCCCC(=O)NCC(=O)O [N-palmitoylglycine (NPG), N-palmitoylglycine]
Kd (CYP505A30 [4]): 5.4 ± 0.1 µM
Kd (heme domain): 2.7 ± 0.8 µM

Kd (CYP505A30 heme domain [5]): 0.12 ± 0.01 µM
HS (%) (CYP505A30 heme domain [5]; extent of HS heme iron accumulated, heme domain, estimated to nearest 5%): 65%
heme Fe^III/Fe^II midpoint potential E^0′ (CYP505A30 heme domain [6]): −69 ± 3 mV
Kd (CYP505A30 [8]): 1.7 ± 0.1 µM
HS (%) (CYP505A30 [8]; extent of HS heme iron accumulated, intact CYP505A30, estimated to nearest 5%): 60%
SMILES: CCCCC/C=C\C/C=C\C/C=C\C/C=C\CCCC(=O)O [arachidonic acid]
kcat (P450 BM3 [7]; P450 BM3, similar conditions): 285 ± 32 s^–1
rate constant of oxidation (P450 BM3 [7]; P450 BM3): > 17 000 min^–1

SMILES: CCCCCCCCCCCC(=O)O [dodecanoic acid]
Kd (CYP505A30 heme domain [5]): 9 ± 0.9 µM
HS (%) (CYP505A30 [9]): 10%
ratio ω-1/ω-2 hydroxylated products (CYP505A30 [10]; CYP505A30): 8.8
ω-1 hydroxylated product proportion (CYP505A30 [10]; CYP505A30, GC–MS): 88%
ω-2 hydroxylated product proportion (CYP505A30 [10]; CYP505A30, GC–MS): ~10%
ω-3 hydroxylated product proportion (CYP505A30 [10]; CYP505A30, GC–MS): 2%
ω-1 hydroxylated product proportion (CYP505A30 [10]; CYP505A30, GC–MS, listed as lauric acid): approximately 88%
ratio ω-1/ω-2 hydroxylated products (CYP505A1 [11]): 1.5
ω-1 hydroxylated product proportion (CYP505A1 [12]): ~55%
ω-2 hydroxylated product proportion (CYP505A1 [12]): ~37%
ω-3 hydroxylated product proportion (CYP505A1 [12]): ~8%
HS (%) (CYP505A30 heme domain [13]): 60%
ω-1 hydroxylated product proportion (P450 BM3 [14]): 48%
ω-2 hydroxylated product proportion (P450 BM3 [14]): 26%
ω-3 hydroxylated product proportion (P450 BM3 [14]): 26%
Kd (CYP505A30 [8]): 6.1 ± 0.4 µM
